Data on four compounds can be found in ChEMBL document CHEMBL1833798, “Coprismycins A and B, neuroprotective phenylpyridines from the dung beetle-associated bacterium, Streptomyces sp” (Bioorg Med Chem Lett, 2011).

In general, inhibition refers to the drop in the measured response relative to a control, in per cent. Read a low inhibition as a response near the control.

Data set [1] deals with SH-SY5Y. The experiment in a line: Cytotoxicity against human SH-SY5Y cells assessed as cell viability at 1 to 5 uM after 24 hrs. Format: cell-based.
The test system of data set [2] is SH-SY5Y. The experiment in a line: Neuroprotective activity against MPP-induced neurotoxicity in human SH-SY5Y cells assessed as increase in cell viability at 5 uM pretreated for 2 hrs before MPP challenge measured after 48 hrs relative to control. The format is functional.
For data set [3], the system named is SH-SY5Y. The experiment in a line: Neuroprotective activity against MPP-induced neurotoxicity in human SH-SY5Y cells assessed as increase in cell viability pretreated for 2 hrs before MPP challenge measured after 48 hrs. The format is functional, cell-based.
A further data set concerns HCT-116. Kind of data set: Cytotoxicity against human HCT116 cells assessed as inhibition of cell proliferation. Format: ADME, cell-based.
The next data set has as its system MCF7. The experiment in a line: Cytotoxicity against human MCF7 cells assessed as inhibition of cell proliferation. The format is ADME, cell-based.
The test system of another data set is A549. Kind of data set: Cytotoxicity against human A549 cells assessed as inhibition of cell proliferation. The format is ADME, cell-based.
The test system of another data set is AGS. The experiment in a line: Cytotoxicity against human AGS cells assessed as inhibition of cell proliferation. The format is ADME, cell-based.
The next data set relates to HepG2. The experiment in a line: Cytotoxicity against human HepG2 cells assessed as inhibition of cell proliferation. The format is ADME, cell-based.
A short description of a further data set: in vitro. Particulars: human, HCT116 cells; call rule not given here.
Data set [4] concerns SH-SY5Y. Kind of data set: Neuroprotective activity against MPP-induced neurotoxicity in human SH-SY5Y cells assessed as increase in cell viability at 2.5 uM pretreated for 2 hrs before MPP challenge measured after 48 hrs relative to control. Format: functional.
Data set [5] concerns SH-SY5Y. Kind of data set: Neuroprotective activity against MPP-induced neurotoxicity in human SH-SY5Y cells assessed as decrease in cell viability at 5 uM pretreated for 2 hrs before MPP challenge measured after 48 hrs relative to control. Format: functional.
The subject of data set [6] is SH-SY5Y. Kind of data set: Cytotoxicity against human SH-SY5Y cells assessed as cell viability at 5 uM after 48 hrs. The format is cell-based.

Description for in vitro: Cytotoxicity against human HCT116 cells assessed as inhibition of cell proliferation at 50 uM

As for `COc1cc(-c2ccccn2)nc2cnsc12`, the Activity entry with SH-SY5Y [1] was “Non-toxic”; in the data set with SH-SY5Y [2] it was 80%; with SH-SY5Y [3], “Dose-dependent effect”. Also, the IC50 entry in the data set with HCT-116, in the data set with MCF7, in the data set on A549, in the data set on AGS and in the data set with HepG2 was “Not Active” each time.

Take `COc1cc(-c2ccccn2)nc(C#N)c1SC`: the results for the Activity entry in the data set on SH-SY5Y [1], in the data set with SH-SY5Y [2] and in the data set with SH-SY5Y [3] were “Non-toxic”, 83.3% and “Dose-dependent effect”, respectively. For the same compound, the IC50 result with HCT-116, in the data set with MCF7, in the data set with A549, with AGS and in the data set on HepG2 was “Not Active” each time. Further, the inhibition at 50 µM in the data set “in vitro” worked out at 7.37%.

In the case of `COc1cc(-c2ccccc2)nc(/C=N/O)c1SC` [COPRISMYCIN A], the Activity result was “Non-toxic” in the data set with SH-SY5Y [1], 80.3% with SH-SY5Y [2] and “Dose-dependent effect” in the data set with SH-SY5Y [3]. In addition, the IC50 entry in the data set with HCT-116, in the data set on MCF7, in the data set on A549, with AGS and in the data set with HepG2 was “Not Active” each time.

As to `COc1cc(-c2ccccc2)nc(/C=N\O)c1SC` [COPRISMYCIN B], the Activity entry with SH-SY5Y [1] was “Non-toxic”; in the data set on SH-SY5Y [4], 88.4%; in the data set on SH-SY5Y [5], 69.8%; in the data set on SH-SY5Y [3] it was “Dose-dependent effect”; in the data set with SH-SY5Y [6], “Toxic”. Moreover, the IC50 result in the data set with HCT-116, in the data set with MCF7, in the data set on A549, in the data set on AGS and in the data set on HepG2 was “Not Active” each time.
